Our source for the CC50 and EC50 values is US12264159B2, “Functionalized heterocycles as antiviral agents” (Enanta Pharmaceuticals, Inc., priority 2018, dated 2025).

A short description of series [1]: Compound induced cellular toxicity in HepG2 cells, ATPlite 1Step. The following applies: human, three days exposure, 50% reduction of total ATP vs no drug controls. It is filed as cell-based. The method, then:
At day 3, post seeding cells are treated with ATPlite 1Step according to the manufacturer's instructions.

For another series, the system named is HBV in 2.2.15 cells. Description: 2.2.15 cells: viral product in cell lysates quantified via quantitative real time PCR. The format is cell-based, hepatitis B virus (HBV). The following applies: Hepatitis B virus, 120 h, day 5 post treatment, 50% reduction of viral product vs no drug controls, readout (qPCR, HBsAg or HBeAg) not specified for the column. In short, it runs like this:
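HBV product was measured at day 5 by lysate qPCR or by supernatant HBsAg/HBeAg ELISA, in 2.2.15 cells seeded at 35,000/well and exposed to 5-fold compound dilution series (0.5% DMSO). EC50 is 50% reduction of viral product relative to untreated controls.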
(Quantitative PCR measures a nucleic acid by following its amplification.)

As a reminder, the CC50 is the concentration giving 50% cytotoxicity. High values mean better tolerance by the cells, low ones harm at low concentration. The EC50 is the concentration giving half of the maximal effect. Read a low EC50 as greater potency. On to `CC(C)(C)[C@@H]1Cn2nc(-c3ccc(F)cc3)c(F)c2-c2cc(=O)c(C(=O)O)cn21` [Example 93, (R)-6-(tert-butyl)-1-fluoro-2-(4-fluorophenyl)-10-oxo-5,6-dihydro-10H-pyrazolo[1,5-a]pyrido[2,1-c]pyrazine-9-carboxylic acid], for which the CC50 at 3 days in series [1] was above 25 µM. The compound further returned an EC50 with HBV in 2.2.15 cells below 0.1 µM.

On to `CC(C)(C)[C@@H]1Cn2nc(-c3cccc(F)c3)c(-c3cccc(F)c3)c2-c2cc(=O)c(C(=O)O)cn21` [Example 94, (R)-6-(tert-butyl)-1,2-bis(3-fluorophenyl)-10-oxo-5,6-dihydro-10H-pyrazolo[1,5-a]pyrido[2,1-c]pyrazine-9-carboxylic acid], for which the CC50 at 3 days in series [1] was above 25 µM. In the series on HBV in 2.2.15 cells, this compound yielded an EC50 below 0.1 µM.

In the case of `CC(C)(C)[C@@H]1Cn2nc(-c3ccccc3F)c(-c3ccccc3F)c2-c2cc(=O)c(C(=O)O)cn21` [Example 95, (R)-6-(tert-butyl)-1,2-bis(2-fluorophenyl)-10-oxo-5,6-dihydro-10H-pyrazolo[1,5-a]pyrido[2,1-c]pyrazine-9-carboxylic acid], the CC50 at 3 days in series [1] is above 25 µM. The compound further registered an EC50 in the series on HBV in 2.2.15 cells below 0.1 µM.

On to `CC(C)(C)[C@@H]1Cn2nc(-c3ccoc3)c(-c3ccoc3)c2-c2cc(=O)c(C(=O)O)cn21` [Example 96, (R)-6-(tert-butyl)-1,2-di(furan-3-yl)-10-oxo-5,6-dihydro-10H-pyrazolo[1,5-a]pyrido[2,1-c]pyrazine-9-carboxylic acid], for which the CC50 at 3 days in series [1] is above 25 µM. This compound had an EC50 in the series on HBV in 2.2.15 cells below 0.1 µM.

The compound `COc1cccc(-c2nn3c(c2-c2cccc(OC)c2)-c2cc(=O)c(C(=O)O)cn2[C@H](C(C)(C)C)C3)c1` [Example 97, (R)-6-(tert-butyl)-1,2-bis(3-methoxyphenyl)-10-oxo-5,6-dihydro-10H-pyrazolo[1,5-a]pyrido[2,1-c]pyrazine-9-carboxylic acid] came in with a 50% cytotoxic concentration (CC50) at 3 days in series [1] above 25 µM. In the series on HBV in 2.2.15 cells, this compound registered a half-maximal effective concentration (EC50) below 0.1 µM.

In series [1], `COc1ccc(-c2nn3c(c2-c2ccc(OC)cc2)-c2cc(=O)c(C(=O)O)cn2[C@H](C(C)(C)C)C3)cc1` [Example 98, (R)-6-(tert-butyl)-1,2-bis(4-methoxyphenyl)-10-oxo-5,6-dihydro-10H-pyrazolo[1,5-a]pyrido[2,1-c]pyrazine-9-carboxylic acid] gave a CC50 at 3 days above 25 µM. In the series on HBV in 2.2.15 cells, this compound returned an EC50 below 0.1 µM.

Consider `CC(C)(C)[C@@H]1Cn2ncc(-c3ccc(F)cc3F)c2-c2cc(=O)c(C(=O)O)cn21` [Example 100, (R)-6-(tert-butyl)-1-(2,4-difluorophenyl)-10-oxo-5,6-dihydro-10H-pyrazolo[1,5-a]pyrido[2,1-c]pyrazine-9-carboxylic acid], for which, in series [1], the CC50 at 3 days was above 25 µM. In the series on HBV in 2.2.15 cells, this compound gave an EC50 below 0.1 µM.

In series [1], `CC(C)(C)[C@@H]1Cn2ncc(-c3ccc(F)cc3)c2-c2cc(=O)c(C(=O)O)cn21` [Example 101, (R)-6-(tert-butyl)-1-(4-fluorophenyl)-10-oxo-5,6-dihydro-10H-pyrazolo[1,5-a]pyrido[2,1-c]pyrazine-9-carboxylic acid] gave a CC50 at 3 days above 25 µM. This compound also had an EC50 in the series on HBV in 2.2.15 cells below 0.1 µM.

`CC(C)(C)[C@@H]1Cn2ncc(-c3ccoc3)c2-c2cc(=O)c(C(=O)O)cn21` [Example 102, (R)-6-(tert-butyl)-1-(furan-3-yl)-10-oxo-5,6-dihydro-10H-pyrazolo[1,5-a]pyrido[2,1-c]pyrazine-9-carboxylic acid]: the CC50 at 3 days in series [1] is above 25 µM. Moreover, the EC50 in the series on HBV in 2.2.15 cells was below 0.1 µM.

As for `CC(C)(C)[C@@H]1Cn2ncc(-c3cccc(F)c3)c2-c2cc(=O)c(C(=O)O)cn21` [Example 103, (R)-6-(tert-butyl)-1-(3-fluorophenyl)-10-oxo-5,6-dihydro-10H-pyrazolo[1,5-a]pyrido[2,1-c]pyrazine-9-carboxylic acid], the CC50 at 3 days in series [1] was above 25 µM. Besides, the EC50 with HBV in 2.2.15 cells was below 0.1 µM.

In series [1], `CC(C)(C)[C@@H]1Cn2ncc(-c3ccccc3F)c2-c2cc(=O)c(C(=O)O)cn21` [Example 104, (R)-6-(tert-butyl)-1-(2-fluorophenyl)-10-oxo-5,6-dihydro-10H-pyrazolo[1,5-a]pyrido[2,1-c]pyrazine-9-carboxylic acid] registered a CC50 at 3 days of 10 to 25 µM. Further, the EC50 in the series on HBV in 2.2.15 cells is below 0.1 µM.

`CC(C)(C)[C@@H]1Cn2ncc(-c3ccccc3)c2-c2cc(=O)c(C(=O)O)cn21` [Example 107, (R)-6-(tert-butyl)-10-oxo-1-phenyl-5,6-dihydro-10H-pyrazolo[1,5-a]pyrido[2,1-c]pyrazine-9-carboxylic acid]: the CC50 at 3 days in series [1] is below 10 µM. Also, the EC50 in the series with HBV in 2.2.15 cells is below 0.1 µM.

The compound `CC(C)(C)[C@@H]1Cn2ncc(-c3ccco3)c2-c2cc(=O)c(C(=O)O)cn21` [Example 108, (R)-6-(tert-butyl)-1-(furan-2-yl)-10-oxo-5,6-dihydro-10H-pyrazolo[1,5-a]pyrido[2,1-c]pyrazine-9-carboxylic acid] yielded a CC50 at 3 days in series [1] of 10 to 25 µM. Besides, in the series with HBV in 2.2.15 cells, the EC50 is below 0.1 µM.

In turn, `CC(C)(C)[C@@H]1Cn2ncc(-c3cccs3)c2-c2cc(=O)c(C(=O)O)cn21` [Example 109, (R)-6-(tert-butyl)-10-oxo-1-(thiophen-2-yl)-5,6-dihydro-10H-pyrazolo[1,5-a]pyrido[2,1-c]pyrazine-9-carboxylic acid] showed a CC50 at 3 days in series [1] above 25 µM. Besides, the EC50 in the series on HBV in 2.2.15 cells was below 0.1 µM.

`CC(C)(C)[C@@H]1Cn2ncc(-c3ccc(F)c(F)c3)c2-c2cc(=O)c(C(=O)O)cn21` [Example 110, (R)-6-(tert-butyl)-1-(3,4-difluorophenyl)-10-oxo-5,6-dihydro-10H-pyrazolo[1,5-a]pyrido[2,1-c]pyrazine-9-carboxylic acid] returned a CC50 at 3 days in series [1] below 10 µM. For the same compound, the EC50 in the series with HBV in 2.2.15 cells was below 0.1 µM.

Turning to `CC(C)(C)[C@@H]1Cn2ncc(-c3cccc4c3OC(F)(F)O4)c2-c2cc(=O)c(C(=O)O)cn21` [Example 111, (R)-6-(tert-butyl)-1-(2,2-difluorobenzo[d][1,3]dioxol-4-yl)-10-oxo-5,6-dihydro-10H-pyrazolo[1,5-a]pyrido[2,1-c]pyrazine-9-carboxylic acid], the CC50 at 3 days in series [1] is above 25 µM. Moreover, in the series with HBV in 2.2.15 cells, the EC50 was below 0.1 µM.

With `COc1ccccc1-c1cnn2c1-c1cc(=O)c(C(=O)O)cn1[C@H](C(C)(C)C)C2` [Example 112, (R)-6-(tert-butyl)-1-(2-methoxyphenyl)-10-oxo-5,6-dihydro-10H-pyrazolo[1,5-a]pyrido[2,1-c]pyrazine-9-carboxylic acid], in series [1], the CC50 at 3 days was above 25 µM. For the same compound, the EC50 in the series on HBV in 2.2.15 cells was below 0.1 µM.

`COc1cccc(-c2cnn3c2-c2cc(=O)c(C(=O)O)cn2[C@H](C(C)(C)C)C3)c1` [Example 113, (R)-6-(tert-butyl)-1-(3-methoxyphenyl)-10-oxo-5,6-dihydro-10H-pyrazolo[1,5-a]pyrido[2,1-c]pyrazine-9-carboxylic acid] registered a CC50 at 3 days in series [1] above 25 µM. In the series with HBV in 2.2.15 cells, this compound yielded an EC50 below 0.1 µM.

Take `COc1ccc(-c2cnn3c2-c2cc(=O)c(C(=O)O)cn2[C@H](C(C)(C)C)C3)cc1` [Example 114, (R)-6-(tert-butyl)-1-(4-methoxyphenyl)-10-oxo-5,6-dihydro-10H-pyrazolo[1,5-a]pyrido[2,1-c]pyrazine-9-carboxylic acid]: in series [1], the CC50 at 3 days was above 25 µM. The EC50 with HBV in 2.2.15 cells is below 0.1 µM.

`CC(C)(C)[C@@H]1Cn2ncc(-c3ccccc3OC(F)(F)F)c2-c2cc(=O)c(C(=O)O)cn21` [Example 115, (R)-6-(tert-butyl)-10-oxo-1-(2-(trifluoromethoxy)phenyl)-5,6-dihydro-10H-pyrazolo[1,5-a]pyrido[2,1-c]pyrazine-9-carboxylic acid] yielded a CC50 at 3 days in series [1] above 25 µM. Also, the EC50 with HBV in 2.2.15 cells is below 0.1 µM.

As for `CC(C)(C)[C@@H]1Cn2ncc(-c3cccc(OC(F)(F)F)c3)c2-c2cc(=O)c(C(=O)O)cn21` [Example 116, (R)-6-(tert-butyl)-10-oxo-1-(3-(trifluoromethoxy)phenyl)-5,6-dihydro-10H-pyrazolo[1,5-a]pyrido[2,1-c]pyrazine-9-carboxylic acid], the CC50 at 3 days in series [1] was above 25 µM. In addition, in the series on HBV in 2.2.15 cells, the EC50 was below 0.1 µM.

For `CC(C)(C)[C@@H]1Cn2ncc(-c3ccc4c(c3F)OCO4)c2-c2cc(=O)c(C(=O)O)cn21` [Example 122, (R)-6-(tert-butyl)-1-(4-fluorobenzo[d][1,3]dioxol-5-yl)-10-oxo-5,6-dihydro-10H-pyrazolo[1,5-a]pyrido[2,1-c]pyrazine-9-carboxylic acid], the CC50 at 3 days in series [1] was above 25 µM. Besides, the EC50 in the series on HBV in 2.2.15 cells was below 0.1 µM.

`CC(C)(C)[C@@H]1Cn2ncc(-c3c(F)ccc4c3OCO4)c2-c2cc(=O)c(C(=O)O)cn21` [Example 123, (R)-6-(tert-butyl)-1-(5-fluorobenzo[d][1,3]dioxol-4-yl)-10-oxo-5,6-dihydro-10H-pyrazolo[1,5-a]pyrido[2,1-c]pyrazine-9-carboxylic acid] showed a CC50 at 3 days in series [1] above 25 µM. In the series on HBV in 2.2.15 cells, this compound showed an EC50 below 0.1 µM.

In series [1], `Cc1cccc(-c2cnn3c2-c2cc(=O)c(C(=O)O)cn2[C@H](C(C)(C)C)C3)c1` [Example 125, (R)-6-(tert-butyl)-10-oxo-1-(m-tolyl)-5,6-dihydro-10H-pyrazolo[1,5-a]pyrido[2,1-c]pyrazine-9-carboxylic acid] yielded a 50% cytotoxic concentration (CC50) at 3 days above 25 µM. In addition, the EC50 with HBV in 2.2.15 cells is below 0.1 µM.

For `Cc1ccc(-c2cnn3c2-c2cc(=O)c(C(=O)O)cn2[C@H](C(C)(C)C)C3)cc1` [Example 126, (R)-6-(tert-butyl)-10-oxo-1-(p-tolyl)-5,6-dihydro-10H-pyrazolo[1,5-a]pyrido[2,1-c]pyrazine-9-carboxylic acid], in series [1], the CC50 at 3 days is above 25 µM. Besides, the EC50 in the series with HBV in 2.2.15 cells was below 0.1 µM.

`Cc1ccccc1-c1cnn2c1-c1cc(=O)c(C(=O)O)cn1[C@H](C(C)(C)C)C2` [Example 127, (R)-6-(tert-butyl)-10-oxo-1-(o-tolyl)-5,6-dihydro-10H-pyrazolo[1,5-a]pyrido[2,1-c]pyrazine-9-carboxylic acid] registered a half-maximal cytotoxic concentration (CC50) at 3 days in series [1] above 25 µM. Further, the 50% effective concentration (EC50) in the series with HBV in 2.2.15 cells is below 0.1 µM.
